From PubChem BioAssay (NCI)
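Five compound concentrations were applied to cells in 96-well plates for 48 hours; endpoints were derived by simple linear interpolation of the resulting dose-response curve. TGI denotes the concentration required for complete inhibition of growth.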

Experiments:
Assay in all cases: NCI-60 cell line screen, 48 h
HT29 colon = tested on: HT29 colon
OVCAR-4 ovarian = tested on: OVCAR-4 ovarian
EKVX NSCLC = tested on: EKVX NSCLC
IGROV1 ovarian = tested on: IGROV1 ovarian
SF-268 CNS = tested on: SF-268 CNS
BT-549 breast = tested on: BT-549 breast
UACC-257 melanoma = tested on: UACC-257 melanoma
OVCAR-8 ovarian = tested on: OVCAR-8 ovarian
HL-60(TB) leukemia = tested on: HL-60(TB) leukemia
NCI-H522 lung = tested on: NCI-H522 lung

CSc1csc(-c2ccc(-c3ccc(-c4cc(SC)cs4)s3)s2)c1
TGI (HT29 colon): > 100 µM | TGI (OVCAR-4 ovarian): > 100 µM | TGI (EKVX NSCLC): > 100 µM | TGI (IGROV1 ovarian): > 100 µM | TGI (SF-268 CNS): > 100 µM | TGI (BT-549 breast): > 100 µM | TGI (UACC-257 melanoma): > 100 µM

N#Cc1sc2c(c1OC(=O)c1ccc(C(F)(F)F)cc1)c(=O)n(-c1ccccc1)c(=S)n2-c1ccccc1
TGI (HT29 colon): 82.5 µM | TGI (OVCAR-8 ovarian): > 100 µM | TGI (OVCAR-4 ovarian): > 100 µM | TGI (EKVX NSCLC): 70.9 µM | TGI (HL-60(TB) leukemia): 46.1 µM | TGI (NCI-H522 lung): 3.51 µM | TGI (IGROV1 ovarian): 56.2 µM | TGI (SF-268 CNS): > 100 µM | TGI (UACC-257 melanoma): > 100 µM

Clc1sc(Cl)c2c1[C@@H](Cl)C[C@@H]2Br
TGI (HT29 colon): > 100 µM | TGI (OVCAR-8 ovarian): > 100 µM | TGI (OVCAR-4 ovarian): > 100 µM | TGI (EKVX NSCLC): > 100 µM | TGI (NCI-H522 lung): > 100 µM | TGI (IGROV1 ovarian): > 100 µM | TGI (SF-268 CNS): > 100 µM | TGI (BT-549 breast): > 100 µM | TGI (UACC-257 melanoma): > 100 µM

O=C(CN1C(=O)CC(c2ccccc2)(c2ccccc2)C1=O)N1CCN(CCO)CC1
TGI (HT29 colon): > 100 µM | TGI (OVCAR-8 ovarian): > 100 µM | TGI (OVCAR-4 ovarian): > 100 µM | TGI (EKVX NSCLC): > 100 µM | TGI (NCI-H522 lung): > 100 µM | TGI (IGROV1 ovarian): > 100 µM | TGI (SF-268 CNS): > 100 µM | TGI (BT-549 breast): > 100 µM | TGI (UACC-257 melanoma): > 100 µM

COc1ccc(-c2nc3ccccc3c(=S)n2OC(C)=O)cc1
TGI (HT29 colon): > 25 µM | TGI (OVCAR-8 ovarian): > 25 µM | TGI (OVCAR-4 ovarian): > 25 µM | TGI (EKVX NSCLC): > 25 µM | TGI (HL-60(TB) leukemia): 17.2 µM | TGI (IGROV1 ovarian): > 25 µM | TGI (SF-268 CNS): > 25 µM | TGI (BT-549 breast): > 25 µM | TGI (UACC-257 melanoma): > 25 µM

CCOC(=O)/C=C1/C(CCCOCc2ccccc2)C2CCCC23CC2(CCN13)OCCO2 (configuration not stated)
TGI (HT29 colon): 45.4 µM | TGI (OVCAR-8 ovarian): > 100 µM | TGI (OVCAR-4 ovarian): > 100 µM | TGI (EKVX NSCLC): > 100 µM | TGI (HL-60(TB) leukemia): 30 µM | TGI (NCI-H522 lung): 31.3 µM | TGI (IGROV1 ovarian): > 100 µM | TGI (SF-268 CNS): > 100 µM | TGI (UACC-257 melanoma): 53.9 µM

COc1cc(C=O)ccc1O
TGI (HT29 colon): > 100 µM | TGI (OVCAR-8 ovarian): > 100 µM | TGI (OVCAR-4 ovarian): > 100 µM | TGI (EKVX NSCLC): > 100 µM | TGI (HL-60(TB) leukemia): > 100 µM | TGI (NCI-H522 lung): > 100 µM | TGI (IGROV1 ovarian): > 100 µM | TGI (SF-268 CNS): > 100 µM | TGI (UACC-257 melanoma): > 100 µM

Cc1cc(C)nc(NC(=S)Nc2ccc([N+](=O)[O-])cc2)c1
TGI (HT29 colon): > 100 µM | TGI (OVCAR-8 ovarian): > 100 µM | TGI (OVCAR-4 ovarian): > 100 µM | TGI (EKVX NSCLC): > 100 µM | TGI (HL-60(TB) leukemia): > 100 µM | TGI (IGROV1 ovarian): > 100 µM | TGI (SF-268 CNS): > 100 µM | TGI (BT-549 breast): > 100 µM | TGI (UACC-257 melanoma): > 100 µM

O=C1NC(O)CCN1C1OC(CO)C(O)C1O (configuration not stated)
TGI (HT29 colon): > 250 µM | TGI (OVCAR-8 ovarian): > 250 µM | TGI (OVCAR-4 ovarian): > 250 µM | TGI (EKVX NSCLC): > 250 µM | TGI (HL-60(TB) leukemia): > 250 µM | TGI (NCI-H522 lung): 247 µM | TGI (IGROV1 ovarian): > 250 µM | TGI (SF-268 CNS): > 250 µM | TGI (UACC-257 melanoma): > 250 µM

COC(=O)c1ccccc1CC1Cc2cccc(C)c2C1=O (configuration not stated)
TGI (HT29 colon): 58.3 µM | TGI (OVCAR-8 ovarian): > 100 µM | TGI (OVCAR-4 ovarian): > 100 µM | TGI (EKVX NSCLC): 41.9 µM | TGI (NCI-H522 lung): 57.2 µM | TGI (IGROV1 ovarian): > 100 µM | TGI (SF-268 CNS): > 100 µM | TGI (BT-549 breast): > 100 µM | TGI (UACC-257 melanoma): 73.3 µM

CCC(C)(C)n1c(C)nc2c1C(=O)c1ccccc1C2=O
TGI (HT29 colon): > 100 µM | TGI (OVCAR-8 ovarian): > 100 µM | TGI (OVCAR-4 ovarian): > 100 µM | TGI (EKVX NSCLC): > 100 µM | TGI (HL-60(TB) leukemia): 47.9 µM | TGI (NCI-H522 lung): 87.5 µM | TGI (IGROV1 ovarian): > 100 µM | TGI (SF-268 CNS): > 100 µM | TGI (UACC-257 melanoma): 84.4 µM

CN(C)Cc1cc(C(=O)/C=C/c2ccc([N+](=O)[O-])cc2)cc(CN(C)C)c1O
TGI (HT29 colon): 25 µM | TGI (OVCAR-8 ovarian): > 100 µM | TGI (EKVX NSCLC): 37.3 µM | TGI (HL-60(TB) leukemia): 5.46 µM | TGI (NCI-H522 lung): 20.1 µM | TGI (IGROV1 ovarian): 35.6 µM | TGI (SF-268 CNS): 42.9 µM | TGI (BT-549 breast): 37.1 µM | TGI (UACC-257 melanoma): 33.6 µM

COc1ccc(CC(N)=O)cc1OC
TGI (HT29 colon): > 1250 µM | TGI (OVCAR-8 ovarian): > 125 µM | TGI (OVCAR-4 ovarian): > 1250 µM | TGI (EKVX NSCLC): > 1250 µM | TGI (HL-60(TB) leukemia): > 1250 µM | TGI (NCI-H522 lung): > 1250 µM | TGI (IGROV1 ovarian): > 1250 µM | TGI (SF-268 CNS): > 1250 µM | TGI (UACC-257 melanoma): > 580 µM

O=C(OCC(Cl)(Cl)Cl)N1CC[C@H](C2CCCCC2)C1
TGI (OVCAR-4 ovarian): 31.2 µM | TGI (EKVX NSCLC): 32.4 µM | TGI (NCI-H522 lung): 32.5 µM | TGI (IGROV1 ovarian): 32.7 µM | TGI (SF-268 CNS): 36.3 µM | TGI (BT-549 breast): 53.9 µM | TGI (UACC-257 melanoma): 38.7 µM

COc1ccc(NC(=O)CSc2nnc(-c3ccc(NC(C)=O)cc3)o2)cc1
TGI (HT29 colon): 25.2 µM | TGI (OVCAR-8 ovarian): 36.6 µM | TGI (OVCAR-4 ovarian): 30.3 µM | TGI (EKVX NSCLC): 43.4 µM | TGI (HL-60(TB) leukemia): 50.9 µM | TGI (NCI-H522 lung): 33.9 µM | TGI (IGROV1 ovarian): 36.9 µM | TGI (SF-268 CNS): 34.8 µM | TGI (UACC-257 melanoma): 41.7 µM

Cc1ccsc1/C=N/Nc1cnccn1
TGI (HT29 colon): > 100 µM | TGI (OVCAR-8 ovarian): > 100 µM | TGI (OVCAR-4 ovarian): > 100 µM | TGI (EKVX NSCLC): > 100 µM | TGI (HL-60(TB) leukemia): > 100 µM | TGI (IGROV1 ovarian): > 100 µM | TGI (SF-268 CNS): > 100 µM | TGI (BT-549 breast): > 100 µM | TGI (UACC-257 melanoma): > 100 µM

Cc1cc(OP2(=O)NCc3ncccc3O2)ccc1Cl (configuration not stated)
TGI (OVCAR-8 ovarian): > 100 µM | TGI (OVCAR-4 ovarian): > 100 µM | TGI (EKVX NSCLC): > 100 µM | TGI (IGROV1 ovarian): > 100 µM | TGI (BT-549 breast): > 100 µM | TGI (UACC-257 melanoma): > 100 µM

CCOC(=O)CNC(=O)NC12CC3CC(CC(C3)C1)C2
TGI (HT29 colon): > 550 µM | TGI (OVCAR-8 ovarian): > 550 µM | TGI (OVCAR-4 ovarian): > 550 µM | TGI (EKVX NSCLC): > 347 µM | TGI (HL-60(TB) leukemia): 543 µM | TGI (NCI-H522 lung): > 536 µM | TGI (IGROV1 ovarian): > 550 µM | TGI (SF-268 CNS): > 550 µM | TGI (UACC-257 melanoma): 477 µM

CCN(CC)c1ccc(/C=C/c2ccnc3ccccc23)cc1
TGI (HT29 colon): > 100 µM | TGI (OVCAR-4 ovarian): > 100 µM | TGI (EKVX NSCLC): > 100 µM | TGI (HL-60(TB) leukemia): > 100 µM | TGI (IGROV1 ovarian): > 100 µM | TGI (SF-268 CNS): > 100 µM | TGI (BT-549 breast): > 100 µM | TGI (UACC-257 melanoma): > 100 µM

COc1cc2c(cc1OCCCN1C(=O)c3cccc4cccc(c34)C1=O)N=C[C@@H]1CCCN1C2=O
TGI (HT29 colon): > 100 µM | TGI (OVCAR-8 ovarian): > 100 µM | TGI (OVCAR-4 ovarian): > 81.4 µM | TGI (EKVX NSCLC): > 100 µM | TGI (NCI-H522 lung): 27.9 µM | TGI (IGROV1 ovarian): 31.5 µM | TGI (SF-268 CNS): > 100 µM | TGI (BT-549 breast): > 100 µM | TGI (UACC-257 melanoma): > 100 µM

CCCN(CCC)c1c([N+](=O)[O-])cc(C(=O)N(CC)CC)cc1[N+](=O)[O-]
TGI (HT29 colon): > 100 µM | TGI (OVCAR-8 ovarian): 69 µM | TGI (EKVX NSCLC): 61.3 µM | TGI (HL-60(TB) leukemia): 50.8 µM | TGI (NCI-H522 lung): 28.6 µM | TGI (IGROV1 ovarian): > 100 µM | TGI (SF-268 CNS): > 100 µM | TGI (UACC-257 melanoma): 43.3 µM

Nc1c(S(=O)(=O)c2ccc(Cl)cc2)c2nc3ccccc3nc2n2ccnc12
TGI (HT29 colon): > 100 µM | TGI (OVCAR-8 ovarian): > 100 µM | TGI (OVCAR-4 ovarian): 33.3 µM | TGI (EKVX NSCLC): > 100 µM | TGI (HL-60(TB) leukemia): > 100 µM | TGI (NCI-H522 lung): > 100 µM | TGI (IGROV1 ovarian): > 100 µM | TGI (SF-268 CNS): > 100 µM | TGI (UACC-257 melanoma): > 100 µM

CN1Cc2c(nc(-c3ccccc3)c[n+]2[O-])N(C)C1
TGI (HT29 colon): > 100 µM | TGI (OVCAR-8 ovarian): > 100 µM | TGI (OVCAR-4 ovarian): > 100 µM | TGI (EKVX NSCLC): > 100 µM | TGI (HL-60(TB) leukemia): > 100 µM | TGI (NCI-H522 lung): > 100 µM | TGI (IGROV1 ovarian): > 100 µM | TGI (SF-268 CNS): > 100 µM | TGI (UACC-257 melanoma): > 100 µM

O=C1c2cccc3cccc(c23)C(=O)N1CCCNCCCCNCCCNCCCN1C(=O)c2cccc3cccc(c23)C1=O
TGI (HT29 colon): 1.15 µM | TGI (OVCAR-8 ovarian): 3.99 µM | TGI (OVCAR-4 ovarian): 1.76 µM | TGI (EKVX NSCLC): 5.67 µM | TGI (HL-60(TB) leukemia): 1.54 µM | TGI (IGROV1 ovarian): 3.41 µM | TGI (SF-268 CNS): 0.665 µM | TGI (BT-549 breast): 3.3 µM | TGI (UACC-257 melanoma): 3.06 µM
